Experiment [1] relates to OCI-AML3 cells. Put plainly: Dose-response curves in AML cell line (6-day culture assay in 384-well plates). The experiment is classed as cell-based. Particulars: FIG. 4E. Here is the method: (§1) FIGS. 5A-5J show the results on experiments assessing the mode of action of Mubritinib for mediating tumor cell death. FIG. 5A: OCI-AML3 leukemic cells were either pre-incubated for 4 hours with 6 mM N-acetyl-cysteine (NAC), a reactive oxygen species (ROS) scavenger, or with vehicle (water) before being treated with 100 nM Mubritinib for 24 h or vehicle (DMSO). […] FIGS. 5C and 5D show the levels of reduced and oxidized levels of glutathione, respectively, in OCI-AML3 treated or not with Mubritinib, as detected by liquid chromatography-mass spectrometry (LC/MS). […] FIG. 5G is a graph depicting dose-response curves upon Mubritinib treatment (6-day culture assay in 384-well plates) of OCI-AML3 and OCI-AML5 cell lines. FIGS. 5H-J are graphs depicting dose-response curves following treatment of OCI-AML3 and OCI-AML5 cell lines with other ETC inhibitors, namely Oligomycin (inhibitor of complex V, FIG. 5H), Rotenone (inhibitor of complex I, FIG. 5I) and Deguelin (inhibitor of complex I, FIG. 5J).
OCI-AML3 cells were maintained in alpha-MEM, 20% FBS whereas breat tumor BT474 cells were maintained in DMEM 10% FBS.
Patient cells were seeded in 384-well plates at a density of 5,000 cells in 50 μL per well. In the initial screen, compounds were added to seeded cells in serial dilutions (10 dilutions, 1:3, starting from 10 μM or 20 μM), in duplicates. Cells treated with 0.1% DMSO without additional compound were used as negative controls. Viable cell counts per well were evaluated after 6 days of culture using the CellTiterGlo® assay (Promega®) according to the manufacturer's instruction. The percent of inhibition was calculated as follows: 100−(100×(mean luminescence(compound)/mean luminescence(DMSO)); where mean-luminescence(compound) corresponds to the average of luminescent signals obtained for the compound-treated cells, and mean-luminescence(DMSO) corresponds to the average of luminescent signals obtained for the control DMSO-treated cells.

Experiment [2] has as its system OCI-AML3 cells. How it is done:
LC/MS Metabolite Measurements (Citric Acid Cycle Intermediates and Glutathione) LC/MS metabolite measurements were carried out at the McGill Metabolomics platform. Authentic metabolite standards were purchased from Sigma-Aldrich Co., while the following LC/MS grade solvents and additives were purchased from Fisher: ammonium acetate, formic acid, water, methanol, and acetonitrile. OCI-AML3 cells (5 million cells, quadruplicates, treated with either DMSO or Mubritinib 500 nM for 20 h) were washed twice with ice-cold 150 mM ammonium formate pH 7.2. Metabolites were then extracted using 380 μl of LC/MS grade 50% methanol/50% water mixture and 220 μl of cold acetonitrile. Samples were then homogenized by 1.4 mm ceramic bead beating 2 min at 30 Hz (TissueLyser, Qiagen). A volume of 300 μl of ice-cold water and 600 μl of ice-cold methylene chloride were added to the lysates. Samples were vortexed and allowed to rest on ice for 10 min for phase separation followed by centrifugation at 4,000 rpm for 5 min. The upper aqueous layer was transferred to a fresh pre-chilled tube. Samples were eventually dried by vacuum centrifugation operating at −4° C. (Labconco) and stored at −80° C. until ready for LC-MS/MS data collection. For LC-MS/MS analysis, specimens were first re-suspended in 50 μl of water and clarified by centrifugation for 15 min at 15,000 rpm at 1° C. Samples were maintained at 4° C. for the duration of the LC-MS/MS analysis in the autosampler.

The test system of experiment [3] is HOX-med/low AML patient cells. Nature of the experiment: Primary chemical screen of 60 compounds, cell dose-response viability assay (CellTiterGlo, 6 days). The experiment is classed as cell-based, human. Particulars: Homo sapiens, 144 h; primary screen; mean over HOX-med/low patient specimens; 6 days culture; top concentration 10 μM or 20 μM; read-out: MEAN EC50 HOX-med/low. Here is the method:
(§2) frozen AML mono-nucleated cells were thawed at 37° C. in Iscove's modified Dulbecco's medium (IMDM) containing 20% FBS and DNase I (100 μg/mL).
(§3) All powders were dissolved in DMSO and diluted in culture medium immediately before use. Final DMSO concentration in all conditions was 0.1%. The 60 compounds were purchased from various suppliers including Santa Cruz, Selleckchem, Calbiochem, AdooQ Bioscience, Cayman chemical and Synkinase.
(§4) Patient cells were seeded in 384-well plates at a density of 5,000 cells in 50 μL per well. In the initial screen, compounds were added to seeded cells in serial dilutions (10 dilutions, 1:3, starting from 10 μM or 20 μM), in duplicates. Cells treated with 0.1% DMSO without additional compound were used as negative controls. Viable cell counts per well were evaluated after 6 days of culture using the CellTiterGlo® assay (Promega®) according to the manufacturer's instruction.
(§5) Using high expression of HOXA9 and HOXA10 as a surrogate for the detection of HOX-network-high patient samples, the survival of HOX-high versus HOX-med/low specimens contacted with 60 inhibitors targeting receptor tyrosine kinases (RTK), members of the RAS and PI3K pathways, was assessed (FIG. 2A, Table 4).
On the technique in general: In ATP-based viability assays light output follows the ATP content of the culture.

The subject of experiment [4] is HOX-high AML patient cells. The description is as above. It counts as cell-based, human. How it is done: as §2, §3, §4, §5
For experiment [5], the target named is human epidermal growth factor receptor 2 (ERBB2/HER2) (Homo sapiens, UniProt P04626). To be noted: described in Nagasawa et al.; cited from earlier work.
Experiment [6] concerns mitochondrial electron transfer chain (ETC) complex I. Particulars: cell free assay (FIG. 5F). How it is done: as §1
Setting [7] is: 500 nM, 24 h, relative to DMSO control.

The structures appear in SMILES notation.

Chain of human epidermal growth factor receptor 2 (ERBB2/HER2) (P04626 23-1255): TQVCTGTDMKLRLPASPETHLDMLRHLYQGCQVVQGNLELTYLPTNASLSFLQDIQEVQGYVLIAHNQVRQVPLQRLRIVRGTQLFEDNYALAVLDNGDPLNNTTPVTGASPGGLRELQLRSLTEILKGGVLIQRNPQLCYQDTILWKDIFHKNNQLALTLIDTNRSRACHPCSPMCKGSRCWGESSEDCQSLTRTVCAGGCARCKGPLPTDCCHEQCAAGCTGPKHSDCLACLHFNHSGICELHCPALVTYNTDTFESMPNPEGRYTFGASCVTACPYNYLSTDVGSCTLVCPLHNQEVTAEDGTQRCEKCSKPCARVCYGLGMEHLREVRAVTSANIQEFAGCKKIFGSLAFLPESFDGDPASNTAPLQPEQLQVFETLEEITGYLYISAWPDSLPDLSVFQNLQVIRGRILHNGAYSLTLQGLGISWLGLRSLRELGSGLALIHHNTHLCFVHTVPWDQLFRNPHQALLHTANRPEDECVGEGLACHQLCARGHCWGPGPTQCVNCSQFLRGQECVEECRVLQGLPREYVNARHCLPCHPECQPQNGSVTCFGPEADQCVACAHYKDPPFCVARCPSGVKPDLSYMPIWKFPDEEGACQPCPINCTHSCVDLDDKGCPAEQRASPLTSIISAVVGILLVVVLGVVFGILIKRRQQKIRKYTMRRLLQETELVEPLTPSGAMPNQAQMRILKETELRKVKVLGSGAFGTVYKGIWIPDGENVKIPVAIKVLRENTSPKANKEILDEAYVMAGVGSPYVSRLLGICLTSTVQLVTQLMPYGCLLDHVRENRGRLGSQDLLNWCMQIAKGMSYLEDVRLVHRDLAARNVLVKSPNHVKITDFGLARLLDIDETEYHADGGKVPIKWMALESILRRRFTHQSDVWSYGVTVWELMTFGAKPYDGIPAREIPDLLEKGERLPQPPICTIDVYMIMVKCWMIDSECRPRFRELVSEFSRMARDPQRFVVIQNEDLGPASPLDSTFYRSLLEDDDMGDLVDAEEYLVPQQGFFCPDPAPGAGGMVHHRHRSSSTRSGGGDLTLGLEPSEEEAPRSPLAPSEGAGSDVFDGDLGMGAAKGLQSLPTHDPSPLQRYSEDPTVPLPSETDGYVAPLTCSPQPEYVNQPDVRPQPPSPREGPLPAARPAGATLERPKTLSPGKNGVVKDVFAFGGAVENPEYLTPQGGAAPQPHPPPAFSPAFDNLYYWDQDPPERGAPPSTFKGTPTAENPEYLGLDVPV

Turning to `FC(F)(F)c1ccc(/C=C/c2nc(COc3ccc(CCCCn4ccnn4)cc3)co2)cc1` [Mubritinib, 1-(4-{4-[(2-{(E)-2-[4-(trifluoromethyl)phenyl]ethenyl}-1,3-oxazol-4-yl)methoxy]phenyl}butyl)-1H-1,2,3-triazole], in the experiment on OCI-AML3 cells [1], the “sensitivity of OCI-AML3 cells (dose response curves)” value is “sensitive”. For the same molecule, in the experiment with OCI-AML3 cells [2] (setting [7]), the “levels of oxidized glutathione” value is listed as “increased”. In addition, in the experiment on OCI-AML3 cells [2] (setting [7]), the “levels of reduced glutathione” value is listed as “decreased”. For the same molecule, the level of citrate result with OCI-AML3 cells [2] (OCI-AML3, Mubritinib 500 nM for 20 h vs DMSO (FIG. 6A)) is recorded as “reduces the levels”. Moreover, in the experiment on OCI-AML3 cells [2] (OCI-AML3, Mubritinib 500 nM for 20 h vs DMSO (FIG. 6B)), the level of alpha-ketoglutarate entry is listed as “reduces the levels”. Besides, the level of succinate entry with OCI-AML3 cells [2] (OCI-AML3, Mubritinib 500 nM for 20 h vs DMSO (FIG. 6C)) is on record as “reduces the levels”. The level of fumarate result in the experiment on OCI-AML3 cells [2] (OCI-AML3, Mubritinib 500 nM for 20 h vs DMSO (FIG. 6D)) was “reduces the levels”. Besides, the level of malate entry in the experiment on OCI-AML3 cells [2] (OCI-AML3, Mubritinib 500 nM for 20 h vs DMSO (FIG. 6E)) is reported as “reduces the levels”. The EC50 came out at 1380 nM in experiment [3] and 315 nM in experiment [4] (Homo sapiens, 144 h, primary screen, mean over HOX-high patient specimens, 6 days culture, top concentration 10 μM or 20 μM, read-out: MEAN EC50 HOX-high). The “difference in sensitivity of HOX-high versus HOX-med/low patient cells” value in experiment [4] (primary screen (FIG. 2B)) is listed as “significantly more sensitive”. The “FOLD CHANGE High/Med-low” value in experiment [4] (ratio of mean EC50 HOX-high to mean EC50 HOX-med/low) is on record as 0.2. Further, the “inhibition of ERBB2/HER2” value in experiment [5] is on record as “potent inhibitor”. Besides, the “ETC Complex I activity” value in experiment [6] is on record as “inhibitory effect on ETC Complex I activity”.

The values are drawn from US20200188361A1, “USE OF MITOCHONDRIAL ACTIVITY INHIBITORS FOR THE TREATMENT OF POOR PROGNOSIS ACUTE MYELOID LEUKEMIA” (UNIVERSITE DE MONTREAL, priority 2016, published 2020).
